Source: ChEMBL document CHEMBL5338790, “Discovery of Subcellular-Targeted Aza-BODIPY Photosensitizers for Efficient Photodynamic Antitumor Therapy” (J Med Chem, 2023)
pIC50: −log10 of the molar value. Active and inactive are the calls of the source. The calls are words filed in the database; no cut-off is given here.

Assays:
HeLa [1] = experiment: Induction of apoptosis in human HeLa cells assessed as viable cells at 100 nM incubated for 3 hrs with photo-irradiation at 54 J/cm2 by Annexin V-FITC/PI staining based flow cytometry relative to control; assay type: functional; settings: light or radiation study, read-out: Activity
[2] = Drug distribution in heart of Balb/C nu/nu mouse xenografted with human HeLa cells at 2.5 umol/kg, iv measured for 1 hr by IVIS imaging analysis; assay type: ADME, organism-based; settings: in vivo, dose 2.5 µmol/kg
[3] = Drug localization in mitochondria of human HeLa cells at 5 uM incubated for 30 mins by MitoTracker Green FM dye based confocal scanning microscopic analysis; assay type: ADME; settings: 0.5 h
HeLa [4] = experiment: Induction of apoptosis in human HeLa cells assessed as late apoptotic cells at 100 nM incubated for 3 hrs with photo-irradiation at 54 J/cm2 by Annexin V-FITC/PI staining based flow cytometry relative to control; assay type: functional
[5] = Drug accumulation in tumor of Balb/C nu/nu mouse xenografted with human HeLa cells at 2.5 umol/kg, iv measured for 3 hrs by IVIS imaging analysis; assay type: ADME, organism-based, Neoplasm; settings: in vivo, dose 2.5 µmol/kg
HeLa [6] = experiment: Induction of apoptosis in human HeLa cells assessed as early apoptotic cells at 50 nM incubated for 3 hrs with photo-irradiation at 54 J/cm2 by Annexin V-FITC/PI staining based flow cytometry relative to control; assay type: functional
HeLa [7] = experiment: Induction of apoptosis in human HeLa cells assessed as late apoptotic cells at 50 nM incubated for 3 hrs with photo-irradiation at 54 J/cm2 by Annexin V-FITC/PI staining based flow cytometry relative to control; assay type: functional
HeLa [8] = experiment: Induction of apoptosis in human HeLa cells assessed as necrotic cells at 100 nM incubated for 3 hrs by Annexin V-FITC/PI staining based flow cytometry relative to control; assay type: toxicity, cell-based; settings: 0.1 µM
HeLa [9] = experiment: Induction of apoptosis in human HeLa cells assessed as late apoptotic cells at 100 nM incubated for 3 hrs by Annexin V-FITC/PI staining based flow cytometry relative to control; assay type: toxicity, cell-based; settings: 0.1 µM
HeLa [10] = experiment: Induction of apoptosis in human HeLa cells assessed as late apoptotic cells at 12.5 nM incubated for 3 hrs with photo-irradiation at 54 J/cm2 by Annexin V-FITC/PI staining based flow cytometry relative to control; assay type: functional
[11] = Drug uptake in human HeLa cells at 5 uM by confocal scanning microscopy; assay type: ADME, cell-based; settings: 3 h, TDE = time-dependent effect
[12] = Drug localization in endoplasmic reticulum of human HeLa cells at 5 uM incubated for 30 mins by ER-Tracker Green dye based confocal scanning microscopic analysis; assay type: ADME; settings: 0.5 h
HeLa [13] = experiment: Photodynamic cytotoxicity against human HeLa cells assessed as inhibition of cell viability incubated for 3 hrs followed by photo-irradiation at 54 J/cm2 measured after 24 hrs by CCK8 assay; assay type: functional, cell-based; settings: light or radiation study
HepG2 = experiment: Photodynamic cytotoxicity against human HepG2 cells assessed as inhibition of cell viability incubated for 3 hrs followed by photo-irradiation at 54 J/cm2 measured after 24 hrs by CCK8 assay; assay type: functional, cell-based; settings: HepG2, light or radiation study
[14] = Drug distribution in tumor of Balb/C nu/nu mouse xenografted with human HeLa cells at 2.5 umol/kg, iv measured for 24 hr by IVIS imaging analysis; assay type: ADME, organism-based, Neoplasm; settings: in vivo, dose 2.5 µmol/kg
[15] = Drug distribution in liver of Balb/C nu/nu mouse xenografted with human HeLa cells at 2.5 umol/kg, iv measured for 1 hr by IVIS imaging analysis; assay type: ADME, organism-based; settings: in vivo, dose 2.5 µmol/kg
[16] = Drug distribution in spleen of Balb/C nu/nu mouse xenografted with human HeLa cells at 2.5 umol/kg, iv measured for 1 hr by IVIS imaging analysis; assay type: ADME, organism-based; settings: in vivo, dose 2.5 µmol/kg
HeLa [17] = experiment: Induction of ROS production in human HeLa cells upto 200 nM preincubated for 2 hrs followed by H2DCFDA probe exposure for 30 mins and subsequent removal of probe by confocal scanning microscopic analysis; assay type: functional, cell-based; settings: time 2.5 hrs
HeLa [18] = experiment: Induction of apoptosis in human HeLa cells assessed as viable cells at 50 nM incubated for 3 hrs with photo-irradiation at 54 J/cm2 by Annexin V-FITC/PI staining based flow cytometry relative to control; assay type: functional; settings: light or radiation study, read-out: Activity
[19] = Cytotoxicity against HUVEC cells assessed as inhibition of cell viability under dark condition incubated for 27 hrs by CCK8 assay; assay type: toxicity, cell-based; settings: human
[20] = Drug localization in lysosome of human HeLa cells at 5 uM incubated for 30 mins by Lyso-tracker Green DND-26 dye based confocal scanning microscopic analysis; assay type: ADME, subcellular; settings: 0.5 h
[21] = Drug concentration in plasma of Balb/C nu/nu mouse xenografted with human HeLa cells at 2.5 umol/kg, iv measured after 24 hr by IVIS imaging analysis; assay type: ADME, organism-based; settings: in vivo, at 2.5 µmol/kg
[22] = Toxicity in Balb/C nu/nu mouse xenografted with human HeLa cells assessed as change in liver histology at 2.5 umol/kg, iv with photo-irradiation at 30 J/cm2 after 1 hr of compound administration measured after 24 days by H and E staining based analysis; assay type: organism-based; settings: in vivo, 576 h, dose 2.5 µmol/kg, time 24 day
[23] = Drug distribution in Balb/C nu/nu mouse xenografted with human HeLa cells at 2.5 umol/kg, iv measured for 24 hr by IVIS imaging analysis; assay type: ADME, organism-based; settings: in vivo, dose 2.5 µmol/kg
HeLa [24] = experiment: Induction of apoptosis in human HeLa cells assessed as early apoptotic cells at 25 nM incubated for 3 hrs with photo-irradiation at 54 J/cm2 by Annexin V-FITC/PI staining based flow cytometry relative to control; assay type: functional
HeLa [25] = experiment: Induction of apoptosis in human HeLa cells assessed as early apoptotic cells at 100 nM incubated for 3 hrs by Annexin V-FITC/PI staining based flow cytometry relative to control; assay type: toxicity, cell-based; settings: 0.1 µM
[26] = Drug distribution in lungs of Balb/C nu/nu mouse xenografted with human HeLa cells at 2.5 umol/kg, iv measured for 24 hr by IVIS imaging analysis; assay type: ADME, organism-based, Lung; settings: in vivo, dose 2.5 µmol/kg
[27] = Drug uptake in human HeLa cells at 5 uM incubated for 3 hrs by confocal scanning microscopy; assay type: ADME, cell-based
HeLa [28] = experiment: Induction of ROS production in human HeLa cells upto 200 nM preincubated for 2 hrs followed by H2DCFDA probe exposure for 30 mins and subsequent removal of probe with photo-irradiation at 16 J/cm2 by confocal scanning microscopic analysis; assay type: functional, cell-based; settings: time 2.5 hrs
[29] = Toxicity in Balb/C nu/nu mouse xenografted with human HeLa cells assessed as change in kidney histology at 2.5 umol/kg, iv with photo-irradiation at 30 J/cm2 after 1 hr of compound administration measured after 24 days by H and E staining based analysis; assay type: organism-based; settings: in vivo, 576 h, dose 2.5 µmol/kg, time 24 day
[30] = Toxicity in Balb/C nu/nu mouse xenografted with human HeLa cells assessed as change in heart histology at 2.5 umol/kg, iv with photo-irradiation at 30 J/cm2 after 1 hr of compound administration measured after 24 days by H and E staining based analysis; assay type: organism-based; settings: in vivo, 576 h, dose 2.5 µmol/kg, time 24 day
HeLa [31] = experiment: Induction of apoptosis in human HeLa cells assessed as viable cells at 100 nM incubated for 3 hrs by Annexin V-FITC/PI staining based flow cytometry relative to control; assay type: toxicity, cell-based; settings: read-out: Activity
[32] = Toxicity in Balb/C nu/nu mouse xenografted with human HeLa cells assessed as change in spleen histology at 2.5 umol/kg, iv with photo-irradiation at 30 J/cm2 after 1 hr of compound administration measured after 24 days by H and E staining based analysis; assay type: organism-based; settings: in vivo, 576 h, dose 2.5 µmol/kg, time 24 day

Question: Which results are given for `COc1ccc2c(c1)CCc1c(-c3ccccc3)c3n(c1-2)[B-](F)(F)[N+]1=C(c2ccc(OCC(=O)NCCCN4CCOCC4)cc2)C(I)=C(c2ccccc2)C1=N3`?
Answer: viability at 0.1 µM (HeLa [1]): 9.73%; Drug uptake [2]: Active; Drug uptake [3]: Not Active; Activity (HeLa [4]): 16.6%; Drug uptake [5]: Active; Activity (HeLa [6]): 58.93%; Activity (HeLa [7]): 13.58%; Activity (HeLa [8]): 1.04%; Activity (HeLa [9]): 5.79%; Activity (HeLa [10]): 5.57%; Drug uptake [11]: Tde; Drug uptake [12]: Not Active; pIC50 (HeLa [13]): 8.68; pIC50 (HepG2): 8.21; Drug uptake [14]: Not Active; Drug uptake [15]: Active; Drug uptake [16]: Active; Activity (HeLa [17]): inactive; viability at 0.05 µM (HeLa [18]): 25.4%; IC50 at 27 h [19]: > 50000 nM; Drug uptake [20]: Active; Drug uptake [21]: 1%; Activity [22]: Non-Toxic; Drug uptake [23]: Not Active; Activity (HeLa [24]): 36.45%; Activity (HeLa [25]): 1.52%; Drug uptake [26]: Not Active; Drug uptake [27]: Active; Activity (HeLa [28]): Active; Activity [29]: Non-Toxic; Activity [30]: Non-Toxic; viability at 0.1 µM (HeLa [31]): 91.7%; Activity [32]: Non-Toxic
